Measurements: EPA's ToxRefDB 2

Legend:
rat [1] = conditions: Sub-acute repeat dose toxicity, sprague dawley, Oral, Gavage/Intubation, dose end: 1 month, group: systemic
dog [2] = conditions: Sub-acute repeat dose toxicity, beagle, Oral, Gavage/Intubation, dose end: 4 week, group: systemic
mouse [3] = conditions: Developmental neurotoxicity study; cd1; Injection; Subcutaneous; dose end: 42 PND; group: cannot be grouped; systemic / in life observation / body weight / offspring (pup) weight
rat [4] = conditions: Chronic toxicity, sprague dawley, Oral, Feed, dose end: 2 year, group: systemic
rat [5] = conditions: Prenatal developmental toxicity study, wistar, Oral, Gavage/Intubation, dose end: 20 GD
rat [6] = conditions: Prenatal developmental toxicity study, wistar, Oral, Feed, dose end: 21 GD
rat [7] = conditions: Combined chronic toxicity/carcinogenicity, sprague dawley, Oral, Feed, dose end: 2 year, group: systemic
rat [8] = conditions: Peri- and post-natal toxicity study (Segment III), sprague dawley, Oral, Gavage/Intubation, dose end: 43 PND
dog [9] = conditions: Chronic toxicity, beagle, Oral, Feed, dose end: 52 week
mouse [10] = conditions: Combined chronic toxicity/carcinogenicity; cd1; Oral; Feed; dose end: 95 week; group: systemic; systemic / in life observation / body weight / body weight gain
rabbit = conditions: Prenatal developmental toxicity study, new zealand white, Oral, Gavage/Intubation, dose end: 19 GD
rat [11] = conditions: Combined chronic toxicity/carcinogenicity, sprague dawley, Oral, Feed, dose end: 2 year
[12] = systemic / in life observation / body weight / body weight gain + systemic / in life observation / food consumption / food consumption
[13] = systemic / in life observation / body weight / body weight gain + systemic / in life observation / food consumption / food consumption + …
[14] = systemic / clinical chemistry / alanine aminotransferase (alt/sgpt) / alanine aminotransferase (alt/sgpt) + systemic / hematology / blood …
[15] = systemic / pathology microscopic / pituitary gland / adenoma/carcinoma combined + systemic / in life observation / body weight / body weight…
[16] = group: developmental, developmental / developmental malformation / great vessels / [other] + developmental / developmental malformation / bone / fused + …
[17] = group: maternal, reproductive / offspring survival early / litter viability other / total litter loss + systemic / in life observation / body weight / body …
[18] = group: developmental, systemic / in life observation / body weight / fetal weight
[19] = group: maternal, reproductive / reproductive performance / postimplantation loss / postimplantation loss + reproductive / reproductive performance / …
[20] = systemic / in life observation / body weight / body weight
[21] = systemic / pathology microscopic / preputial gland / atrophy
[22] = group: developmental, developmental / developmental landmark / vaginal opening / vaginal opening
[23] = group: maternal, reproductive / reproductive performance / estrous cycle / [other] + reproductive / reproductive performance / estrous cycle / abnormal
[24] = group: parental, systemic / organ weight / adrenal gland / absolute
[25] = group: cholinesterase, cholinesterase / cholinesterase / cholinesterase / cholinesterase (che) + cholinesterase / cholinesterase / cholinesterase / plasma …
[26] = group: systemic, systemic / in life observation / clinical signs / [other] + systemic / in life observation / clinical signs / labored respiration + systemic…
[27] = group: developmental, developmental / developmental landmark / incisor eruption / incisor eruption + developmental / developmental malformation / bone / absent + …
[28] = group: maternal, systemic / in life observation / body weight / body weight gain + systemic / in life observation / food consumption / food efficiency
[29] = group: maternal, systemic / in life observation / body weight / body weight gain + systemic / in life observation / food consumption / food efficiency + …
[30] = group: cholinesterase, cholinesterase / cholinesterase / cholinesterase / brain cholinesterase (che)
[31] = group: cholinesterase, cholinesterase / cholinesterase / cholinesterase / brain cholinesterase (che) + cholinesterase / cholinesterase / cholinesterase / plasma …
[32] = group: systemic, systemic / in life observation / body weight / body weight + systemic / in life observation / body weight / body weight gain

CC(=O)O.COCCOc1cc2cc(C(=O)NC3CCN(C(C)C)CC3)n(CC(=O)Nc3ccc(Cl)cn3)c2cn1
LEL (rat [1]; [12]): 10 mg/kg/day
NEL (rat [1]; [12]): < 10 mg/kg/day
LOAEL (rat [1]; [13]): 30 mg/kg/day
NOAEL (rat [1]; [13]): 10 mg/kg/day
LOAEL (dog [2]; [14]): 75 mg/kg/day
NEL (dog [2]; [14]): 3 mg/kg/day
NOAEL (dog [2]; [14]): 15 mg/kg/day
LEL (dog [2]; systemic / organ weight / liver / absolute + systemic / organ weight / liver / relative to body weight): 15 mg/kg/day

O=P1(N(CCCl)CCCl)NCCCO1 (stereo unspecified) [Cyclophosphamide]
LEL (mouse [3]): 20 mg/kg/day
LOAEL (mouse [3]): > 45 mg/kg/day
NEL (mouse [3]): < 20 mg/kg/day
NOAEL (mouse [3]): ≥ 45 mg/kg/day

O=c1c(-c2ccc(O)cc2)coc2cc(O)cc(O)c12 [Genistein]
NEL (rat [4]; systemic / organ weight / pituitary gland / absolute + systemic / organ weight / pituitary gland / relative to body weight): 0.25 mg/kg/day
LEL (rat [4]; systemic / organ weight / pituitary gland / absolute + systemic / organ weight / pituitary gland / relative to body weight + systemic / …): 5 mg/kg/day
LOAEL (rat [4]; [15]): > 25 mg/kg/day
NOAEL (rat [4]; [15]): ≥ 25 mg/kg/day
LEL (rat [5]; group: developmental, developmental / developmental malformation / great vessels / [other]): 150 mg/kg/day
LOAEL (rat [5]; [16]): > 1000 mg/kg/day
NEL (rat [5]; [16]): 20 mg/kg/day
NOAEL (rat [5]; [16]): ≥ 1000 mg/kg/day
LEL (rat [5]; [17]): 1000 mg/kg/day
LOAEL (rat [5]; [17]): > 1000 mg/kg/day
NEL (rat [5]; [17]): 150 mg/kg/day
NOAEL (rat [5]; [17]): ≥ 1000 mg/kg/day
LEL (rat [6]; [18]): 500 mg/kg/day
LOAEL (rat [6]; [18]): > 500 mg/kg/day
NEL (rat [6]; [18]): 100 mg/kg/day
NOAEL (rat [6]; [18]): ≥ 500 mg/kg/day
LEL (rat [6]; [19]): 500 mg/kg/day
LOAEL (rat [6]; [19]): > 500 mg/kg/day
NEL (rat [6]; [19]): 100 mg/kg/day
NOAEL (rat [6]; [19]): ≥ 500 mg/kg/day

C#C[C@]1(O)CC[C@H]2[C@@H]3CCc4cc(O)ccc4[C@H]3CC[C@@]21C [17alpha-Ethinylestradiol]
LEL (rat [7]; [20]): 0.00012 mg/kg/day
NEL (rat [7]; [20]): < 0.00012 mg/kg/day
LOAEL (rat [7]; [21]): 0.00021 mg/kg/day
NOAEL (rat [7]; [21]): < 0.00021 mg/kg/day
LEL (rat [8]; [22]): 0.005 mg/kg/day
LOAEL (rat [8]; [22]): > 0.005 mg/kg/day
NEL (rat [8]; [22]): 0.0025 mg/kg/day
NOAEL (rat [8]; [22]): ≥ 0.005 mg/kg/day
LEL (rat [8]; [23]): 0.005 mg/kg/day
LOAEL (rat [8]; [23]): > 0.005 mg/kg/day
NEL (rat [8]; [23]): 0.0025 mg/kg/day
NOAEL (rat [8]; [23]): ≥ 0.005 mg/kg/day
LEL (rat [8]; [24]): 0.0025 mg/kg/day
LOAEL (rat [8]; [24]): > 0.005 mg/kg/day
NEL (rat [8]; [24]): < 0.0025 mg/kg/day
NOAEL (rat [8]; [24]): ≥ 0.005 mg/kg/day

CNC(=O)Oc1cccc(N=CN(C)C)c1.Cl [Formetanate hydrochloride]
LEL (dog [9]; [25]): 1.74 mg/kg/day
LOAEL (dog [9]; [25]): 1.74 mg/kg/day
NEL (dog [9]; [25]): 0.37 mg/kg/day
NOAEL (dog [9]; [25]): 0.37 mg/kg/day
LEL (dog [9]; [26]): 1.74 mg/kg/day
LOAEL (dog [9]; [26]): 1.74 mg/kg/day
NEL (dog [9]; [26]): 0.37 mg/kg/day
NOAEL (dog [9]; [26]): 0.37 mg/kg/day
LEL (mouse [10]): 70 mg/kg/day
LOAEL (mouse [10]): 70 mg/kg/day
NEL (mouse [10]): 7 mg/kg/day
NOAEL (mouse [10]): 7 mg/kg/day
LEL (rabbit; [27]): 15 mg/kg/day
LOAEL (rabbit; [27]): 15 mg/kg/day
NEL (rabbit; [27]): 5 mg/kg/day
NOAEL (rabbit; [27]): 5 mg/kg/day
LEL (rabbit; [28]): 15 mg/kg/day
LOAEL (rabbit; [28]): 15 mg/kg/day
NEL (rabbit; [29]): 5 mg/kg/day
NOAEL (rabbit; [29]): 5 mg/kg/day
LEL (rat [11]; [30]): 0.45 mg/kg/day
NEL (rat [11]; [30]): < 0.45 mg/kg/day
LOAEL (rat [11]; [31]): > 12 mg/kg/day
NOAEL (rat [11]; [31]): ≥ 12 mg/kg/day
LOAEL (rat [11]; group: systemic, systemic / in life observation / body weight / body weight): 12 mg/kg/day
LEL (rat [11]; [32]): 12 mg/kg/day
NEL (rat [11]; [32]): 2.3 mg/kg/day
NOAEL (rat [11]; [32]): 2.3 mg/kg/day
